Source: PMC7319900 (Nature, 2020)

Columns and labels:
BaiH from C. scindens = target: T1, BaiH from C. scindens ([Clostridium] scindens, UniProt P32370); experiment: LC-MS of acid-precipitated purified enzyme; type: binding; conditions: as purified after expression and lysis with added flavin
T1 sequence (P32370 1-661): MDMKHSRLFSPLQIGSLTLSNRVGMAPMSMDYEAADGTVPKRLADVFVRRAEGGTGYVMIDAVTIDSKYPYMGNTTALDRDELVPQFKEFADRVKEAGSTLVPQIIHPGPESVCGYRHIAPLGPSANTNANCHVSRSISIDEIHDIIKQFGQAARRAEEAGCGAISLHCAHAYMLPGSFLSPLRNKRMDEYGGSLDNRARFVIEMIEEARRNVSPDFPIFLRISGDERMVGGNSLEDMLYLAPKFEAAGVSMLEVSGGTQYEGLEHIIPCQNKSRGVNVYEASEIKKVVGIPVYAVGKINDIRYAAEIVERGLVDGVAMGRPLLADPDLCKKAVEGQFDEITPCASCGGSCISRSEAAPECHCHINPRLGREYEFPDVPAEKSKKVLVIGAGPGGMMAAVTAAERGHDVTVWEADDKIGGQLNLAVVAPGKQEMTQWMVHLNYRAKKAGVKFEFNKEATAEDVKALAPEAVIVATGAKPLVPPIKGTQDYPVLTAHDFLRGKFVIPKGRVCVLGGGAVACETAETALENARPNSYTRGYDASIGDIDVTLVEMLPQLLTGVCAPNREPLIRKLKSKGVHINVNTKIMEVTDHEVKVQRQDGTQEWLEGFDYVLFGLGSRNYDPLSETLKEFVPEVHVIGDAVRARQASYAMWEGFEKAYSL

BaiCD from C. hiranonis = target: T2, BaiCD from C. hiranonis (Peptacetobacter hiranonis, UniProt Q9RB48); experiment: LC-MS of acid-precipitated purified enzyme; type: binding; conditions: as purified after expression and lysis with added flavin
T2 sequence (Q9RB48 1-639): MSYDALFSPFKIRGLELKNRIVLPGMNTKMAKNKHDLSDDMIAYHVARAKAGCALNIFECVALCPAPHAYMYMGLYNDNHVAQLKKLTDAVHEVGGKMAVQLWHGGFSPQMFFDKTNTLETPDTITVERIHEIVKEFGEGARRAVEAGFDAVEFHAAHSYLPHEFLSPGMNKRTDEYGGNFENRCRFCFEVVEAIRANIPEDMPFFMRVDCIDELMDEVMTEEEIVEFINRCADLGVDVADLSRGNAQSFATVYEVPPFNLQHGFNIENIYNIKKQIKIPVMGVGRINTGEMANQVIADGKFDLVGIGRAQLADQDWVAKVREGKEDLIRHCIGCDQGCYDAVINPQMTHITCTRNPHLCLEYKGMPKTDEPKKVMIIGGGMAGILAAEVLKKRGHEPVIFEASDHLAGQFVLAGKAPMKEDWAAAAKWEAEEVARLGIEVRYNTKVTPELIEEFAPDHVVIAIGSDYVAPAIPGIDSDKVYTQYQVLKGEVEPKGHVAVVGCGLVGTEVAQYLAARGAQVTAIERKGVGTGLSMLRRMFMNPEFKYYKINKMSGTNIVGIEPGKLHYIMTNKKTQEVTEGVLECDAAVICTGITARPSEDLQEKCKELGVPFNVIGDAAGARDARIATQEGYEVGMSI

BaiA2 from C. scindens = target: T3, BaiA2 from C. scindens ([Clostridium] scindens, UniProt P19337); experiment: LC-MS extracted ion chromatograms; type: biochemical; conditions: reduction to DCA; experiment performed once
T3 sequence (P19337 1-249): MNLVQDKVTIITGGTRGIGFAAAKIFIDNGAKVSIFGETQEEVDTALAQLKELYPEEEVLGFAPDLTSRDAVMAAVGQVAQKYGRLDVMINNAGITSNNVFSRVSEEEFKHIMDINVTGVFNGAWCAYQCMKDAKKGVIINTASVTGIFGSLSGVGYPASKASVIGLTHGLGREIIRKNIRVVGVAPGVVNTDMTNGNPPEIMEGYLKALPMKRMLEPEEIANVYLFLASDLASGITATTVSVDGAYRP

In the case of `Cc1cc2nc3c(=O)[nH]c(=O)nc-3n(C[C@H](O)[C@H](O)[C@H](O)COP(=O)(O)OP(=O)(O)OC[C@H]3O[C@@H](n4cnc5c(N)ncnc54)[C@H](O)[C@@H]3O)c2cc1C` [FAD], the “LC-MS of acid-precipitated purified enzyme; UV-vis” value (“LC-MS … UV-vis” for short) (BaiH from C. scindens) is reported as “The presence of FAD and FMN were confirmed by precipitating purified enzyme with sulfuric acid” and the “LC-MS … UV-vis” value (BaiCD from C. hiranonis) is reported as “The presence of FAD and FMN were confirmed by precipitating purified enzyme with sulfuric acid”.

`Cc1cc2nc3c(=O)[nH]c(=O)nc-3n(C[C@H](O)[C@H](O)[C@H](O)COP(=O)(O)O)c2cc1C` [FMN] was tested, and the “LC-MS … UV-vis” value (BaiH from C. scindens) was “The presence of FAD and FMN were confirmed by precipitating purified enzyme with sulfuric acid” and the “LC-MS … UV-vis” value (BaiCD from C. hiranonis) was “The presence of FAD and FMN were confirmed by precipitating purified enzyme with sulfuric acid”.

For `C[C@H](CCC(=O)O)[C@H]1CC[C@H]2[C@@H]3CC[C@@H]4CC(=O)CC[C@]4(C)[C@H]3C[C@H](O)[C@]12C` [compound 8, 3-oxo-deoxycholic acid], the “LC-MS extracted ion chromatograms” value (BaiA2 from C. scindens) was “conversion of 3-oxo-DCA to DCA by recombinant BaiA2”.
